The results in this text go back to paper PMC5218480 (PLoS ONE, 2017).

The test system of this assay is MV-4-11 cells. Nature of the assay: Gene expression microarray analysis (Affymetrix PrimeView) and GSEA. The format is cell-based, human. Set-up: RFU PODN (11730768_x_at) / Fold change /veh PODN (11730768_x_at) / RFU LINC00158 (11744669_a_at) / Fold change /veh LINC00158 (11744669_a_at) / RFU DUSP10 (11751237_a_at) / Fold change /veh DUSP10 (11751237_a_at) / RFU ID3 (11757404_x_at) / Fold change /veh ID3 (11757404_x_at) / RFU PLEKHG5 (11737974_s_at) / Fold change /veh PLEKHG5 (11737974_s_at) / RFU LRRC4B (11730491_at) / Fold change /veh LRRC4B (11730491_at) / RFU GIMAP4 (11747438_a_at) / Fold change /veh GIMAP4 (11747438_a_at) / RFU KRT8 (11758183_x_at) / Fold change /veh KRT8 (11758183_x_at) / RFU CNN1 (11734310_a_at) / Fold change /veh CNN1 (11734310_a_at) / RFU VPS37D (11726825_at) / Fold change /veh VPS37D (11726825_at) / RFU C10orf10 (11716522_x_at) / Fold change /veh C10orf10 (11716522_x_at) / RFU KIR2DL2 /// KIR2DL4 /// KIR2DL5A /// KIR2DL5B /// KIR2DS1 /// KIR2DS2 /// KIR2DS3 /// KIR2DS4 /// KIR3DL3 /// KIR3DL3 /// KIR3DS1 (11738374_at) / Fold change /veh KIR2DL2 /// KIR2DL4 /// KIR2DL5A /// KIR2DL5B /// KIR2DS1 /// KIR2DS2 /// KIR2DS3 /// KIR2DS4 /// KIR3DL3 /// KIR3DL3 /// KIR3DS1 (11738374_at) / RFU C1QL1 (11718748_at) / Fold change /veh C1QL1 (11718748_at) / RFU TMPRSS4 (11747572_a_at) / Fold change /veh TMPRSS4 (11747572_a_at) / RFU HAMP (11756126_x_at) / Fold change /veh HAMP (11756126_x_at) / RFU RNFT2 (11725882_a_at) / Fold change /veh RNFT2 (11725882_a_at) / RFU NR4A2 (11747474_a_at) / Fold change /veh NR4A2 (11747474_a_at) / RFU ABCC12 (11746883_a_at) / Fold change /veh ABCC12 (11746883_a_at) / RFU TMEM136 (11760407_x_at) / Fold change /veh TMEM136 (11760407_x_at) / RFU CLDN22 /// WWC2 (11732394_at) / Fold change /veh CLDN22 /// WWC2 (11732394_at) / RFU HLA-DPB1 (11760878_x_at) / Fold change /veh HLA-DPB1 (11760878_x_at) / RFU SPINT1 (11716480_a_at) / Fold change /veh SPINT1 (11716480_a_at) / RFU GAP43 (11754022_s_at) / Fold change /veh GAP43 (11754022_s_at) / RFU A4GNT (11735810_at) / Fold change /veh A4GNT (11735810_at) / RFU PRB3 (11715151_x_at) / Fold change /veh PRB3 (11715151_x_at) / RFU TUBB4B (11761932_at) / Fold change /veh TUBB4B (11761932_at) / RFU CAPN14 (11732068_a_at) / Fold change /veh CAPN14 (11732068_a_at) / RFU TMCC2 (11721928_a_at) / Fold change /veh TMCC2 (11721928_a_at) / RFU IRGQ (11745062_a_at) / Fold change /veh IRGQ (11745062_a_at) / RFU FAM174B (11720279_a_at) / Fold change /veh FAM174B (11720279_a_at) / RFU TMPRSS4 (11748680_a_at) / Fold change /veh TMPRSS4 (11748680_a_at) / RFU FAM212B (11763350_a_at) / Fold change /veh FAM212B (11763350_a_at) / RFU PLEKHG5 (11743358_a_at) / Fold change /veh PLEKHG5 (11743358_a_at) / RFU ZSCAN30 (11745921_a_at) / Fold change /veh ZSCAN30 (11745921_a_at) / RFU CMKLR1 (11741424_a_at) / Fold change /veh CMKLR1 (11741424_a_at) / RFU LOC101060620 /// MAPK8IP1 (11723275_at) / Fold change /veh LOC101060620 /// MAPK8IP1 (11723275_at) / RFU SPTSSB (11747773_x_at) / Fold change /veh SPTSSB (11747773_x_at) / RFU PRSS12 (11739890_at) / Fold change /veh PRSS12 (11739890_at) / RFU BIN1 (11741810_x_at) / Fold change /veh BIN1 (11741810_x_at) / RFU WNT11 (11732464_a_at) / Fold change /veh WNT11 (11732464_a_at) / RFU C10orf10 (11716521_a_at) / Fold change /veh C10orf10 (11716521_a_at) / RFU C5orf56 (11738089_at) / Fold change /veh C5orf56 (11738089_at) / RFU CYB561 (11721691_x_at) / Fold change /veh CYB561 (11721691_x_at) / RFU ANKRD19P (11752326_a_at) / Fold change /veh ANKRD19P (11752326_a_at) / RFU OR2T12 /// OR2T33 /// OR2T8 (11738714_s_at) / Fold change /veh OR2T12 /// OR2T33 /// OR2T8 (11738714_s_at) / RFU VCAN (11748164_a_at) / Fold change /veh VCAN (11748164_a_at) / RFU JSRP1 (11732532_at) / Fold change /veh JSRP1 (11732532_at) / RFU KRTAP10-11 (11738290_x_at) / Fold change /veh KRTAP10-11 (11738290_x_at) / RFU MYO3A (11730013_a_at) / Fold change /veh MYO3A (11730013_a_at) / RFU EBF3 (11725865_a_at) / Fold change /veh EBF3 (11725865_a_at) / RFU CAMK2N1 (11719241_x_at) / Fold change /veh CAMK2N1 (11719241_x_at) / RFU C5orf56 (11738088_a_at) / Fold change /veh C5orf56 (11738088_a_at) / RFU OLFML3 (11715873_a_at) / Fold change /veh OLFML3 (11715873_a_at) / RFU LOC100653217 /// NTM (11731650_a_at) / Fold change /veh LOC100653217 /// NTM (11731650_a_at) / RFU MAPK11 (11762145_a_at) / Fold change /veh MAPK11 (11762145_a_at) / RFU FIZ1 (11724087_x_at) / Fold change /veh FIZ1 (11724087_x_at) / RFU OASL (11726364_x_at) / Fold change /veh OASL (11726364_x_at) / RFU SOX15 (11748057_x_at) / Fold change /veh SOX15 (11748057_x_at) / RFU CD79A (11719716_a_at) / Fold change /veh CD79A (11719716_a_at) / RFU HIST1H1D (11736915_at) / Fold change /veh HIST1H1D (11736915_at) / RFU CASKIN2 (11723855_a_at) / Fold change /veh CASKIN2 (11723855_a_at) / RFU LOC730098 (11760151_x_at) / Fold change /veh LOC730098 (11760151_x_at) / RFU OR4N2 (11742367_at) / Fold change /veh OR4N2 (11742367_at) / RFU PRRT2 (11749266_a_at) / Fold change /veh PRRT2 (11749266_a_at) / RFU SNX32 (11753110_a_at) / Fold change /veh SNX32 (11753110_a_at) / RFU CDHR5 (11726645_a_at) / Fold change /veh CDHR5 (11726645_a_at) / RFU RCAN1 (11760418_a_at) / Fold change /veh RCAN1 (11760418_a_at) / RFU FAM167A (11723789_a_at) / Fold change /veh FAM167A (11723789_a_at) / RFU FAM26E (11764081_at) / Fold change /veh FAM26E (11764081_at) / RFU ISYNA1 (11749810_s_at) / Fold change /veh ISYNA1 (11749810_s_at) / RFU ACY1 (11761880_at) / Fold change /veh ACY1 (11761880_at) / RFU 11764098_at / Fold change /veh 11764098_at / RFU SAMD14 (11745864_x_at) / Fold change /veh SAMD14 (11745864_x_at) / RFU NPB (11741838_a_at) / Fold change /veh NPB (11741838_a_at) / RFU TMPRSS6 (11731388_a_at) / Fold change /veh TMPRSS6 (11731388_a_at) / RFU KRTAP10-2 (11738614_at) / Fold change /veh KRTAP10-2 (11738614_at) / RFU ARHGAP8 /// PRR5-ARHGAP8 (11727945_x_at) / Fold change /veh ARHGAP8 /// PRR5-ARHGAP8 (11727945_x_at) / RFU KRTAP5-7 /// NADSYN1 (11734609_at) / Fold change /veh KRTAP5-7 /// NADSYN1 (11734609_at) / RFU RASL12 (11751679_a_at) / Fold change /veh RASL12 (11751679_a_at) / RFU CDKN2B (11736163_a_at) / Fold change /veh CDKN2B (11736163_a_at) / RFU PRF1 (11729649_at) / Fold change /veh PRF1 (11729649_at) / RFU, ZNF638 /// ZNF638-IT1 / Fold change vs veh, ZNF638 /// ZNF638-IT1 / RFU, PANK3 / Fold change vs veh, PANK3 / RFU, SH3YL1 / Fold change vs veh, SH3YL1 / RFU, ZEB2 / Fold change vs veh, ZEB2 / RFU, NRIP1 / Fold change vs veh, NRIP1 / RFU, PTTG1IP / Fold change vs veh, PTTG1IP / RFU, CAPN2 / Fold change vs veh, CAPN2 / RFU, MED14 / Fold change vs veh, MED14 / RFU, SNORA58 / Fold change vs veh, SNORA58 / RFU, C1orf63 / Fold change vs veh, C1orf63 / RFU, LRRFIP1 / Fold change vs veh, LRRFIP1 / RFU, NDUFAF7 / Fold change vs veh, NDUFAF7 / RFU, SLC12A2 / Fold change vs veh, SLC12A2 / RFU, IBTK / Fold change vs veh, IBTK / RFU, ESF1 / Fold change vs veh, ESF1 / Fold change vs veh, TMEM50B / RFU, TAOK1 / Fold change vs veh, TAOK1 / RFU, ACBD3 / Fold change vs veh, ACBD3 / RFU, TMA16 / Fold change vs veh, TMA16 / RFU, RWDD3 / Fold change vs veh, RWDD3 / RFU, BCAT1 / Fold change vs veh, BCAT1 / RFU, EDEM3 / Fold change vs veh, EDEM3 / RFU, TMEM33 / Fold change vs veh, TMEM33 / RFU, WDR75 / Fold change vs veh, WDR75 / RFU, AHCTF1 / Fold change vs veh, AHCTF1 / RFU, TFRC / Fold change vs veh, TFRC / RFU, ZDHHC17 / Fold change vs veh, ZDHHC17 / RFU, NOM1 / Fold change vs veh, NOM1 / RFU, ARL8B / Fold change vs veh, ARL8B / RFU, ZBTB11 / Fold change vs veh, ZBTB11 / RFU, TAMM41 / Fold change vs veh, TAMM41 / RFU, KIAA1704 /// LOC100996395 / Fold change vs veh, KIAA1704 /// LOC100996395 / RFU, ING1 / Fold change vs veh, ING1 / RFU, TRMT61B / Fold change vs veh, TRMT61B / RFU, FUBP3 / Fold change vs veh, FUBP3 / RFU, TP53 / Fold change vs veh, TP53 / RFU, TNKS2 / Fold change vs veh, TNKS2 / RFU, ZFP14 / Fold change vs veh, ZFP14 / RFU, ACTR2 / Fold change vs veh, ACTR2 / RFU, PPP3R1 / Fold change vs veh, PPP3R1 / RFU, PIK3R1 / Fold change vs veh, PIK3R1 / RFU, HNRNPA1 / Fold change vs veh, HNRNPA1 / RFU, RNF170 / Fold change vs veh, RNF170 / RFU, ZNF28 / Fold change vs veh, ZNF28 / RFU, RNGTT / Fold change vs veh, RNGTT / RFU, OGT / Fold change vs veh, OGT / RFU, BRD1 / Fold change vs veh, BRD1 / RFU, MARS / Fold change vs veh, MARS / RFU, ZNF655 / Fold change vs veh, ZNF655 / RFU, FAHD1 / Fold change vs veh, FAHD1 / RFU, BDP1 / Fold change vs veh, BDP1 / RFU, LRRCC1 / Fold change vs veh, LRRCC1 / RFU, ARID1A / Fold change vs veh, ARID1A / RFU, ZNF146 / Fold change vs veh, ZNF146 / RFU, ZNF330 / Fold change vs veh, ZNF330 / RFU, GPN3 / Fold change vs veh, GPN3 / RFU, C9orf123 / Fold change vs veh, C9orf123 / RFU, N4BP2L2 / Fold change vs veh, N4BP2L2 / RFU, ARFIP1 / Fold change vs veh, ARFIP1 / RFU, FAM179B / Fold change vs veh, FAM179B / RFU, BCL10 / Fold change vs veh, BCL10 / RFU, UHRF1BP1L / Fold change vs veh, UHRF1BP1L / RFU, BET1 / Fold change vs veh, BET1 / RFU, CNOT2 / Fold change vs veh, CNOT2 / RFU, ZNF268 / Fold change vs veh, ZNF268 / Fold change vs veh, ZNF507 / RFU, DGCR2 / Fold change vs veh, DGCR2 / RFU, WDSUB1 / Fold change vs veh, WDSUB1 / Fold change vs veh, HSP90B1 /// MIR3652 / RFU, ADSS / Fold change vs veh, ADSS / RFU, GK / Fold change vs veh, GK / RFU, ZNF148 / Fold change vs veh, ZNF148 / RFU, TAF9 / Fold change vs veh, TAF9 / RFU, SLC1A5 / Fold change vs veh, SLC1A5 / RFU, SLMO2 / Fold change vs veh, SLMO2 / RFU, ABCC4 / Fold change vs veh, ABCC4 / RFU, LOC101060439 /// RAP1B / Fold change vs veh, LOC101060439 /// RAP1B / RFU, RFX7 / Fold change vs veh, RFX7 / RFU, GTPBP10 / Fold change vs veh, GTPBP10 / RFU, CNEP1R1 / Fold change vs veh, CNEP1R1 / RFU, BIVM-ERCC5 /// ERCC5 / Fold change vs veh, BIVM-ERCC5 /// ERCC5 / RFU, ILF3 / Fold change vs veh, ILF3 / RFU 11762660_at / Fold change /veh 11762660_at / RFU VCAN (11757783_s_at) / Fold change /veh VCAN (11757783_s_at) / RFU DDX43 (11728927_at) / Fold change /veh DDX43 (11728927_at) / RFU KRT8 (11758188_x_at) / Fold change /veh KRT8 (11758188_x_at) / RFU NKD1 (11759106_at) / Fold change /veh NKD1 (11759106_at) / RFU SRD5A1 (11742802_a_at) / Fold change /veh SRD5A1 (11742802_a_at) / RFU TPSAB1 /// TPSB2 (11721975_s_at) / Fold change /veh TPSAB1 /// TPSB2 (11721975_s_at) / RFU GSTM3 (11746129_a_at) / Fold change /veh GSTM3 (11746129_a_at) / RFU IL23R (11737362_x_at) / Fold change /veh IL23R (11737362_x_at) / RFU TMEM51 (11727254_a_at) / Fold change /veh TMEM51 (11727254_a_at) / RFU PIWIL2 (11732686_x_at) / Fold change /veh PIWIL2 (11732686_x_at) / RFU ORM1 (11744905_x_at) / Fold change /veh ORM1 (11744905_x_at) / RFU CCDC152 (11743942_at) / Fold change /veh CCDC152 (11743942_at) / RFU ECM1 (11717891_a_at) / Fold change /veh ECM1 (11717891_a_at) / RFU IL23R (11748794_a_at) / Fold change /veh IL23R (11748794_a_at) / RFU TNFAIP8L3 (11732012_x_at) / Fold change /veh TNFAIP8L3 (11732012_x_at) / RFU MBOAT4 (11741988_at) / Fold change /veh MBOAT4 (11741988_at) / RFU 11764193_at / Fold change /veh 11764193_at / RFU TMEM53 (11763286_at) / Fold change /veh TMEM53 (11763286_at) / RFU MAGEB2 (11727129_at) / Fold change /veh MAGEB2 (11727129_at) / RFU TMEM200A (11744735_a_at) / Fold change /veh TMEM200A (11744735_a_at) / RFU CCDC152 (11751479_a_at) / Fold change /veh CCDC152 (11751479_a_at) / RFU FAM211A (11726209_a_at) / Fold change /veh FAM211A (11726209_a_at) / RFU RGS16 (11746705_a_at) / Fold change /veh RGS16 (11746705_a_at) / RFU VCAN (11755009_s_at) / Fold change /veh VCAN (11755009_s_at) / RFU RHOB (11743442_s_at) / Fold change /veh RHOB (11743442_s_at) / RFU RGS16 (11720943_a_at) / Fold change /veh RGS16 (11720943_a_at) / RFU RGS16 (11720944_at) / Fold change /veh RGS16 (11720944_at) / RFU, VPS4B / Fold change vs veh, VPS4B / RFU, CREB1 / Fold change vs veh, CREB1 / RFU, DNAJC13 / Fold change vs veh, DNAJC13 / RFU, GNAQ / Fold change vs veh, GNAQ / RFU, CDK5R1 / Fold change vs veh, CDK5R1 / RFU, ZRANB3 / Fold change vs veh, ZRANB3 / RFU, CUL4A / Fold change vs veh, CUL4A / RFU, CCNY / Fold change vs veh, CCNY / RFU, UFL1 / Fold change vs veh, UFL1 / RFU, COG3 / Fold change vs veh, COG3 / RFU, DIAPH2 / Fold change vs veh, DIAPH2 / RFU, SKA2 / Fold change vs veh, SKA2 / RFU, AFF3 / Fold change vs veh, AFF3 / RFU, LMF1 / Fold change vs veh, LMF1 / RFU, IPO11 / Fold change vs veh, IPO11 / RFU, DFFB / Fold change vs veh, DFFB / RFU, FOXP1 / Fold change vs veh, FOXP1 / RFU, CARD8 / Fold change vs veh, CARD8 / RFU, STRN3 / Fold change vs veh, STRN3 / RFU, ADK / Fold change vs veh, ADK / RFU, RASSF2 / Fold change vs veh, RASSF2 / RFU, WIPF1 / Fold change vs veh, WIPF1 / RFU, LARP1B / Fold change vs veh, LARP1B / RFU, RASA1 / Fold change vs veh, RASA1 / RFU, RB1 / Fold change vs veh, RB1 / RFU, PPFIA1 / Fold change vs veh, PPFIA1 / RFU, MAT2A / Fold change vs veh, MAT2A / RFU, CCT5 / Fold change vs veh, CCT5 / RFU, WDR92 / Fold change vs veh, WDR92 / RFU, CUX1 / Fold change vs veh, CUX1 / RFU, TTC7A / Fold change vs veh, TTC7A / RFU, TMEM135 / Fold change vs veh, TMEM135 / RFU, DEPTOR / Fold change vs veh, DEPTOR / RFU, CPM / Fold change vs veh, CPM / RFU, DNAJB6 / Fold change vs veh, DNAJB6 / RFU, CACNA2D3 / Fold change vs veh, CACNA2D3 / RFU, DTX4 / Fold change vs veh, DTX4 / RFU, TFCP2 / Fold change vs veh, TFCP2 / RFU, GMCL1 /// GMCL1P1 / Fold change vs veh, GMCL1 /// GMCL1P1 / RFU, AEBP2 / Fold change vs veh, AEBP2 / RFU, SNHG1 /// SNORD22 /// SNORD25 /// SNORD26 /// SNORD27 /// SNORD28 /// SNORD29 /// SNORD31 / Fold change vs veh, SNHG1 /// SNORD22 /// SNORD25 /// SNORD26 /// SNORD27 /// SNORD28 /// SNORD29 /// SNORD31 / Fold change (Aza/veh), C12orf56 (ProbeSet 11735607_a_at) / Fold change (ACY-1035/veh), C12orf56 (ProbeSet 11735607_a_at) / Fold change (Aza/veh), FGFR1OP (ProbeSet 11751329_s_at) / Fold change (ACY-1035/veh), FGFR1OP (ProbeSet 11751329_s_at) / Fold change (Aza/veh), VPS36 (ProbeSet 11739960_a_at) / Fold change (ACY-1035/veh), VPS36 (ProbeSet 11739960_a_at) / RFU SYPL1 (11715823_x_at) / Fold change /veh SYPL1 (11715823_x_at) / RFU IGFBP7 (11715501_s_at) / Fold change /veh IGFBP7 (11715501_s_at) / RFU REEP3 (11722064_at) / Fold change /veh REEP3 (11722064_at) / RFU IGLL1 (11728026_x_at) / Fold change /veh IGLL1 (11728026_x_at): dose or concentration left out as unconfirmed. As to conditions: MV-4-11 cells, 48 hours.

With `Nc1ncn([C@@H]2O[C@H](CO)[C@@H](O)[C@H]2O)c(=O)n1` [azacitidine], the “RFU FIZ1 (11724087_x_at)” value came out at 32.14 RFU.
